# Tested on: 873145-292-R-J1-PDC complex spheroid viability
# Assay: Anticancer human tumor 873145-292-R-J1-PDC patient-derived renal clear cell carcinoma cell line growth inhibition [POLQ]
# Settings: for IC50: curve of first compound; for viability, T/C: stronger effect = lower value
# Outline: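 Complex spheroid viability model combining PDC tumour cells with endothelial (HUVEC) and MSC stromal cells. Novobiocin, ART-558 or RP6685 were tested singly and in combination with standard and investigational anticancer drugs. Each was titrated in half-log steps from near clinical Cmax, or from 10 microM where Cmax was unknown.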
# [1] = second compound 0.0316 µM, first compound 0.0316 µM
# [2] = second compound 0.0316 µM, first compound 0.1 µM
# [3] = second compound 0.0316 µM, first compound 0.316 µM
# [4] = second compound 0.0316 µM, first compound 1 µM
# [5] = second compound 0.0316 µM, first compound 3.16 µM
# [6] = second compound 0.0316 µM, first compound 10 µM
# [7] = second compound 0.1 µM, first compound 0.0316 µM
# [8] = second compound 0.1 µM, first compound 0.1 µM
# [9] = second compound 0.1 µM, first compound 0.316 µM
# [10] = second compound 0.1 µM, first compound 1 µM
# [11] = second compound 0.1 µM, first compound 3.16 µM
# [12] = second compound 0.1 µM, first compound 10 µM
# [13] = second compound 0.316 µM, first compound 0.0316 µM
# [14] = second compound 0.316 µM, first compound 0.1 µM
# [15] = second compound 0.316 µM, first compound 0.316 µM
# [16] = second compound 0.316 µM, first compound 1 µM
# [17] = second compound 0.316 µM, first compound 3.16 µM
# [18] = second compound 0.316 µM, first compound 10 µM
# [19] = second compound 1 µM, first compound 0.0316 µM
# [20] = second compound 1 µM, first compound 0.1 µM
# [21] = second compound 1 µM, first compound 0.316 µM
# [22] = second compound 1 µM, first compound 1 µM
# [23] = second compound 1 µM, first compound 3.16 µM
# [24] = second compound 1 µM, first compound 10 µM
# [25] = second compound 3.16 µM, first compound 0.0316 µM
# [26] = second compound 3.16 µM, first compound 0.1 µM
# [27] = second compound 3.16 µM, first compound 0.316 µM
# [28] = second compound 3.16 µM, first compound 1 µM
# [29] = second compound 3.16 µM, first compound 3.16 µM
# [30] = second compound 3.16 µM, first compound 10 µM
# [31] = second compound 10 µM, first compound 0.0316 µM
# [32] = second compound 10 µM, first compound 0.1 µM
# [33] = second compound 10 µM, first compound 0.316 µM
# [34] = second compound 10 µM, first compound 1 µM
# [35] = second compound 10 µM, first compound 3.16 µM
# [36] = second compound 10 µM, first compound 10 µM
# 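Also: spheroids exposed to compounds for 7 days before viability readout.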
# 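For viability, T/C in this document: luminescence signal used as surrogate for viable cell content; 100% = DMSO vehicle control viability.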
smiles,measurement,setting,value
CC1COCCN1c1cc(-c2ccnn2C)c2ccnc(-c3ccn[nH]3)c2n1 (stereo not drawn) + COC1C(OC(N)=O)C(O)C(Oc2ccc3c(O)c(NC(=O)c4ccc(O)c(CC=C(C)C)c4)c(=O)oc3c2C)OC1(C)C,IC50,second compound 0.0316 µM,1.52 µM
same,IC50,second compound 0.1 µM,0.986 µM
same,IC50,second compound 0.316 µM,1.21 µM
same,IC50,second compound 1 µM,0.864 µM
same,IC50,second compound 3.16 µM,0.952 µM
same,IC50,second compound 10 µM,0.948 µM
same,"viability, T/C",[1],86.7%
same,"viability, T/C",[2],80.9%
same,"viability, T/C",[3],68.6%
same,"viability, T/C",[4],54.8%
same,"viability, T/C",[5],42.2%
same,"viability, T/C",[6],38.5%
same,"viability, T/C",[7],94.1%
same,"viability, T/C",[8],83.4%
same,"viability, T/C",[9],70%
same,"viability, T/C",[10],47.1%
same,"viability, T/C",[11],43.8%
same,"viability, T/C",[12],47.3%
same,"viability, T/C",[13],94.2%
same,"viability, T/C",[14],76.3%
same,"viability, T/C",[15],63.7%
same,"viability, T/C",[16],51.6%
same,"viability, T/C",[17],41.2%
same,"viability, T/C",[18],45.1%
same,"viability, T/C",[19],92.5%
same,"viability, T/C",[20],80.9%
same,"viability, T/C",[21],63.4%
same,"viability, T/C",[22],47.6%
same,"viability, T/C",[23],42.1%
same,"viability, T/C",[24],42.3%
same,"viability, T/C",[25],85.1%
same,"viability, T/C",[26],79.8%
same,"viability, T/C",[27],66.8%
same,"viability, T/C",[28],49.9%
same,"viability, T/C",[29],38.3%
same,"viability, T/C",[30],38.1%
same,"viability, T/C",[31],93%
same,"viability, T/C",[32],82.8%
same,"viability, T/C",[33],67.2%
same,"viability, T/C",[34],47.6%
same,"viability, T/C",[35],43.7%
same,"viability, T/C",[36],41.8%
CC1COCCN1c1cc(C2(S(C)(=N)=O)CC2)nc(-c2ccnc3[nH]ccc23)n1 (stereo not drawn) + COC1C(OC(N)=O)C(O)C(Oc2ccc3c(O)c(NC(=O)c4ccc(O)c(CC=C(C)C)c4)c(=O)oc3c2C)OC1(C)C,IC50,second compound 0.0316 µM,> 10 µM
same,IC50,second compound 0.1 µM,> 10 µM
same,IC50,second compound 0.316 µM,> 10 µM
same,IC50,second compound 1 µM,> 10 µM
same,IC50,second compound 3.16 µM,> 10 µM
same,IC50,second compound 10 µM,> 10 µM
same,"viability, T/C",[1],98.8%
same,"viability, T/C",[2],101%
same,"viability, T/C",[3],88.6%
same,"viability, T/C",[4],88.3%
same,"viability, T/C",[5],86.4%
same,"viability, T/C",[6],67.8%
same,"viability, T/C",[7],105%
same,"viability, T/C",[8],94.7%
same,"viability, T/C",[9],90.8%
same,"viability, T/C",[10],90.1%
same,"viability, T/C",[11],81.3%
same,"viability, T/C",[12],58.5%
same,"viability, T/C",[13],102%
same,"viability, T/C",[14],95.6%
same,"viability, T/C",[15],90%
same,"viability, T/C",[16],82.7%
same,"viability, T/C",[17],80.3%
same,"viability, T/C",[18],55.8%
same,"viability, T/C",[19],100%
same,"viability, T/C",[20],90.2%
same,"viability, T/C",[21],96.7%
same,"viability, T/C",[22],95.6%
same,"viability, T/C",[23],85.6%
same,"viability, T/C",[24],61.5%
same,"viability, T/C",[25],100%
same,"viability, T/C",[26],90.1%
same,"viability, T/C",[27],103%
same,"viability, T/C",[28],82.7%
same,"viability, T/C",[29],82.6%
same,"viability, T/C",[30],62.2%
same,"viability, T/C",[31],95.1%
same,"viability, T/C",[32],92.9%
same,"viability, T/C",[33],95.6%
same,"viability, T/C",[34],81.1%
same,"viability, T/C",[35],74.8%
same,"viability, T/C",[36],64.6%
COc1ccc([C@@H](O)c2cc(-c3ncnc4cc(N5CCOCC5)ccc34)c(F)cc2Cl)nn1 + COC1C(OC(N)=O)C(O)C(Oc2ccc3c(O)c(NC(=O)c4ccc(O)c(CC=C(C)C)c4)c(=O)oc3c2C)OC1(C)C,IC50,second compound 0.0316 µM,4.41 µM
same,IC50,second compound 0.1 µM,4.1 µM
same,IC50,second compound 0.316 µM,3.22 µM
same,IC50,second compound 1 µM,3.96 µM
same,IC50,second compound 3.16 µM,6.14 µM
same,IC50,second compound 10 µM,5.25 µM
same,"viability, T/C",[1],92%
same,"viability, T/C",[2],97.4%
same,"viability, T/C",[3],81.2%
same,"viability, T/C",[4],69.8%
same,"viability, T/C",[5],50.3%
same,"viability, T/C",[6],46.1%
same,"viability, T/C",[7],94.3%
same,"viability, T/C",[8],87.9%
same,"viability, T/C",[9],83.1%
same,"viability, T/C",[10],71.3%
same,"viability, T/C",[11],51.7%
same,"viability, T/C",[12],40.3%
same,"viability, T/C",[13],108%
same,"viability, T/C",[14],93%
same,"viability, T/C",[15],76.1%
same,"viability, T/C",[16],64.9%
same,"viability, T/C",[17],51.3%
same,"viability, T/C",[18],36.6%
same,"viability, T/C",[19],92.4%
same,"viability, T/C",[20],85.5%
same,"viability, T/C",[21],83.5%
same,"viability, T/C",[22],68.1%
same,"viability, T/C",[23],52.5%
same,"viability, T/C",[24],40.1%
same,"viability, T/C",[25],89.1%
same,"viability, T/C",[26],92.4%
same,"viability, T/C",[27],85.7%
same,"viability, T/C",[28],65.1%
same,"viability, T/C",[29],62.9%
same,"viability, T/C",[30],42.7%
same,"viability, T/C",[31],99.1%
same,"viability, T/C",[32],90%
same,"viability, T/C",[33],88.7%
same,"viability, T/C",[34],70.4%
same,"viability, T/C",[35],58.9%
same,"viability, T/C",[36],39.9%
Cn1ncnc1[C@H]1c2n[nH]c(=O)c3cc(F)cc(c23)N[C@@H]1c1ccc(F)cc1 + COC1C(OC(N)=O)C(O)C(Oc2ccc3c(O)c(NC(=O)c4ccc(O)c(CC=C(C)C)c4)c(=O)oc3c2C)OC1(C)C,IC50,second compound 0.0316 µM,> 0.1 µM
same,IC50,second compound 0.1 µM,> 0.1 µM
same,IC50,second compound 0.316 µM,> 0.1 µM
same,IC50,second compound 1 µM,> 0.1 µM
same,IC50,second compound 3.16 µM,> 0.1 µM
same,IC50,second compound 10 µM,> 0.1 µM
same,"viability, T/C","second compound 0.0316 µM, first compound 0.000316 µM",98.5%
same,"viability, T/C","second compound 0.0316 µM, first compound 0.001 µM",102%
same,"viability, T/C","second compound 0.0316 µM, first compound 0.00316 µM",87.2%
same,"viability, T/C","second compound 0.0316 µM, first compound 0.01 µM",94.8%
same,"viability, T/C",[1],102%
same,"viability, T/C",[2],95.9%
same,"viability, T/C","second compound 0.1 µM, first compound 0.000316 µM",101%
same,"viability, T/C","second compound 0.1 µM, first compound 0.001 µM",102%
same,"viability, T/C","second compound 0.1 µM, first compound 0.00316 µM",96.2%
same,"viability, T/C","second compound 0.1 µM, first compound 0.01 µM",85.9%
same,"viability, T/C",[7],99.5%
same,"viability, T/C",[8],84.2%
same,"viability, T/C","second compound 0.316 µM, first compound 0.000316 µM",102%
same,"viability, T/C","second compound 0.316 µM, first compound 0.001 µM",98.7%
same,"viability, T/C","second compound 0.316 µM, first compound 0.00316 µM",102%
same,"viability, T/C","second compound 0.316 µM, first compound 0.01 µM",93.1%
same,"viability, T/C",[13],94.8%
same,"viability, T/C",[14],91.6%
same,"viability, T/C","second compound 1 µM, first compound 0.000316 µM",103%
same,"viability, T/C","second compound 1 µM, first compound 0.001 µM",99.3%
same,"viability, T/C","second compound 1 µM, first compound 0.00316 µM",95.6%
same,"viability, T/C","second compound 1 µM, first compound 0.01 µM",103%
same,"viability, T/C",[19],94.5%
same,"viability, T/C",[20],89.8%
same,"viability, T/C","second compound 3.16 µM, first compound 0.000316 µM",101%
same,"viability, T/C","second compound 3.16 µM, first compound 0.001 µM",97.7%
same,"viability, T/C","second compound 3.16 µM, first compound 0.00316 µM",108%
same,"viability, T/C","second compound 3.16 µM, first compound 0.01 µM",89.3%
same,"viability, T/C",[25],98.8%
same,"viability, T/C",[26],99.3%
same,"viability, T/C","second compound 10 µM, first compound 0.000316 µM",98.9%
same,"viability, T/C","second compound 10 µM, first compound 0.001 µM",95%
same,"viability, T/C","second compound 10 µM, first compound 0.00316 µM",104%
same,"viability, T/C","second compound 10 µM, first compound 0.01 µM",90.9%
same,"viability, T/C",[31],95.2%
same,"viability, T/C",[32],94.9%

# Source: PubChem BioAssay AID1963834 (Molecular Pharmacology Branch, DTP, NCI, 2024)
